Test results published in PubChem BioAssay AID2060504 (Molecular Pharmacology Branch, DTP, NCI, 2025).

Test system: 636577-100-R-J1-PDC complex spheroid viability
Experiment: Anticancer human tumor 636577-100-R-J1-PDC patient-derived endometrial adenocarcinoma cell line growth inhibition [GQUAD]
Settings: for IC50: curve of first compound; for viability, T/C: stronger effect = lower value; active = viability on the fitted dose curve at most 10% of control; inactive = the rest
In short: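 Tumor cells were grown as complex spheroids with HUVEC endothelial cells and mesenchymal stem cells as stroma. G-quadruplex stabilizers were combined with targeted agents over half-log dilutions from near the clinical Cmax, or from 10 microM.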

[1] = second compound 0.0316 µM, first compound 0.0316 µM
[2] = second compound 0.0316 µM, first compound 0.1 µM
[3] = second compound 0.0316 µM, first compound 0.316 µM
[4] = second compound 0.0316 µM, first compound 1 µM
[5] = second compound 0.0316 µM, first compound 3.16 µM
[6] = second compound 0.0316 µM, first compound 10 µM
[7] = second compound 0.1 µM, first compound 0.0316 µM
[8] = second compound 0.1 µM, first compound 0.1 µM
[9] = second compound 0.1 µM, first compound 0.316 µM
[10] = second compound 0.1 µM, first compound 1 µM
[11] = second compound 0.1 µM, first compound 3.16 µM
[12] = second compound 0.1 µM, first compound 10 µM
[13] = second compound 0.316 µM, first compound 0.0316 µM
[14] = second compound 0.316 µM, first compound 0.1 µM
[15] = second compound 0.316 µM, first compound 0.316 µM
[16] = second compound 0.316 µM, first compound 1 µM
[17] = second compound 0.316 µM, first compound 3.16 µM
[18] = second compound 0.316 µM, first compound 10 µM
[19] = second compound 1 µM, first compound 0.0316 µM
[20] = second compound 1 µM, first compound 0.1 µM
[21] = second compound 1 µM, first compound 0.316 µM
[22] = second compound 1 µM, first compound 1 µM
[23] = second compound 1 µM, first compound 3.16 µM
[24] = second compound 1 µM, first compound 10 µM
[25] = second compound 3.16 µM, first compound 0.0316 µM
[26] = second compound 3.16 µM, first compound 0.1 µM
[27] = second compound 3.16 µM, first compound 0.316 µM
[28] = second compound 3.16 µM, first compound 1 µM
[29] = second compound 3.16 µM, first compound 3.16 µM
[30] = second compound 3.16 µM, first compound 10 µM
[31] = second compound 10 µM, first compound 0.0316 µM
[32] = second compound 10 µM, first compound 0.1 µM
[33] = second compound 10 µM, first compound 0.316 µM
[34] = second compound 10 µM, first compound 1 µM
[35] = second compound 10 µM, first compound 3.16 µM
[36] = second compound 10 µM, first compound 10 µM
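Also: viability read after seven days of drug exposure.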
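For viability, T/C in this document: luminescence signal used as a proxy for viable cells; 100% = DMSO vehicle control wells.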

C=CC(=O)N1CCN(c2nc(=O)n(-c3c(C)ccnc3C(C)C)c3nc(-c4c(O)cccc4F)c(F)cc23)C(C)C1 (stereo not drawn) + CN(C)c1ccc(Nc2c3ccc(NC(=O)CCN4CCCC4)cc3nc3cc(NC(=O)CCN4CCCC4)ccc23)cc1
inactive: viability, T/C [1] 82.5% | viability, T/C [2] 60.8% | viability, T/C [3] 114% | viability, T/C [4] 75.2% | viability, T/C [5] 91.9% | viability, T/C [6] 64.8% | viability, T/C [7] 73.5% | viability, T/C [8] 67.1% | viability, T/C [9] 78.9% | viability, T/C [10] 73% | viability, T/C [11] 108% | viability, T/C [12] 75.6% | viability, T/C [13] 79.5% | viability, T/C [14] 63.9% | viability, T/C [15] 88% | viability, T/C [16] 81.2% | viability, T/C [17] 97.5% | viability, T/C [18] 67.4% | viability, T/C [19] 85.9% | viability, T/C [20] 54.3% | viability, T/C [21] 76.3% | viability, T/C [22] 96.9% | viability, T/C [23] 94.5% | viability, T/C [24] 60.3% | viability, T/C [25] 42% | viability, T/C [26] 43.9% | viability, T/C [27] 35.4% | viability, T/C [28] 53.6% | viability, T/C [29] 43.7% | viability, T/C [30] 28.9%
> 10000 nM: IC50 (second compound 0.0316 µM) | IC50 (second compound 0.1 µM) | IC50 (second compound 0.316 µM) | IC50 (second compound 1 µM)
< 31.6 nM: IC50 (second compound 3.16 µM) | IC50 (second compound 10 µM)
active: viability, T/C [31] 6.52% | viability, T/C [32] 5.91% | viability, T/C [33] 6.86% | viability, T/C [34] 6.43% | viability, T/C [35] 3.58% | viability, T/C [36] 0.96%

O=C(c1cc(Cc2n[nH]c(=O)c3ccccc23)ccc1F)N1CCN(C(=O)C2CC2)CC1 + Cc1[nH]c2ccc(F)cc2c1-c1nc2c3cccnc3c3ncccc3c2[nH]1
3280 nM: IC50 (second compound 10 µM)
5550 nM: IC50 (second compound 1 µM)
inactive: viability, T/C [1] 103% | viability, T/C [2] 79.4% | viability, T/C [3] 46.5% | viability, T/C [4] 58.6% | viability, T/C [5] 50.4% | viability, T/C [6] 40.6% | viability, T/C [7] 100% | viability, T/C [8] 96.5% | viability, T/C [9] 65.2% | viability, T/C [10] 43.7% | viability, T/C [11] 67.6% | viability, T/C [12] 36.9% | viability, T/C [13] 90.1% | viability, T/C [14] 75.3% | viability, T/C [15] 66.7% | viability, T/C [16] 61.6% | viability, T/C [17] 53.7% | viability, T/C [18] 32.4% | viability, T/C [19] 60.6% | viability, T/C [20] 65.7% | viability, T/C [21] 65.6% | viability, T/C [22] 57.9% | viability, T/C [23] 63.4% | viability, T/C [24] 37% | viability, T/C [25] 39.4% | viability, T/C [26] 40.7% | viability, T/C [27] 43.5% | viability, T/C [28] 43.3% | viability, T/C [29] 31.6% | viability, T/C [30] 29.9% | viability, T/C [31] 34.6% | viability, T/C [32] 64.9% | viability, T/C [33] 57.3% | viability, T/C [34] 41.9% | viability, T/C [35] 54% | viability, T/C [36] 33%
3060 nM: IC50 (second compound 0.1 µM)
< 31.6 nM: IC50 (second compound 3.16 µM)
2690 nM: IC50 (second compound 0.316 µM)
305 nM: IC50 (second compound 0.0316 µM)

CC(C)(O)C1CCC(Nc2ccc3ncc(-c4cccc(C(F)(F)F)c4)n3n2)CC1 (stereo not drawn) + CN(C)c1ccc(Nc2c3ccc(NC(=O)CCN4CCCC4)cc3nc3cc(NC(=O)CCN4CCCC4)ccc23)cc1
inactive: viability, T/C [1] 107% | viability, T/C [2] 82% | viability, T/C [3] 104% | viability, T/C [4] 77.6% | viability, T/C [5] 34.6% | viability, T/C [6] 33.8% | viability, T/C [7] 83.9% | viability, T/C [8] 59.2% | viability, T/C [9] 109% | viability, T/C [10] 57.8% | viability, T/C [11] 30% | viability, T/C [12] 37.2% | viability, T/C [13] 69.3% | viability, T/C [14] 57.9% | viability, T/C [15] 96.7% | viability, T/C [16] 63.6% | viability, T/C [17] 30.6% | viability, T/C [18] 28.1% | viability, T/C [19] 77.2% | viability, T/C [20] 54.1% | viability, T/C [21] 66.5% | viability, T/C [22] 63.6% | viability, T/C [23] 26.4% | viability, T/C [24] 22.2% | viability, T/C [25] 41.3% | viability, T/C [26] 46.2% | viability, T/C [27] 40.6% | viability, T/C [28] 33.5% | viability, T/C [29] 15.8%
< 31.6 nM: IC50 (second compound 3.16 µM) | IC50 (second compound 10 µM)
active: viability, T/C [30] 9.06% | viability, T/C [31] 5.85% | viability, T/C [32] 5.51% | viability, T/C [33] 5.56% | viability, T/C [34] 4.55% | viability, T/C [35] 1.2% | viability, T/C [36] 0.47%
1450 nM: IC50 (second compound 0.1 µM)
1580 nM: IC50 (second compound 0.316 µM)
2080 nM: IC50 (second compound 0.0316 µM)
1520 nM: IC50 (second compound 1 µM)

C=CC(=O)N1CCN(c2nc(=O)n(-c3c(C)ccnc3C(C)C)c3nc(-c4c(O)cccc4F)c(F)cc23)C(C)C1 (stereo not drawn) + Cc1cnc(CNC(=O)c2c(=O)c3ccc(N4CCCN(C)CC4)nc3n3c2sc2ccccc23)cn1
< 31.6 nM: IC50 (second compound 0.0316 µM) | IC50 (second compound 0.1 µM) | IC50 (second compound 0.316 µM) | IC50 (second compound 1 µM) | IC50 (second compound 3.16 µM) | IC50 (second compound 10 µM)
inactive: viability, T/C [1] 41.6% | viability, T/C [2] 45.5% | viability, T/C [3] 43.1% | viability, T/C [4] 45.7% | viability, T/C [5] 51% | viability, T/C [6] 43% | viability, T/C [7] 28.8% | viability, T/C [8] 30.6% | viability, T/C [9] 31.7% | viability, T/C [10] 33.1% | viability, T/C [11] 35.1% | viability, T/C [12] 28.1% | viability, T/C [13] 24.7% | viability, T/C [14] 25.1% | viability, T/C [15] 25.2% | viability, T/C [16] 29.9% | viability, T/C [17] 31.1% | viability, T/C [18] 28% | viability, T/C [19] 24.6% | viability, T/C [20] 22.8% | viability, T/C [21] 24.1% | viability, T/C [22] 25.4% | viability, T/C [23] 21.7% | viability, T/C [24] 25.7% | viability, T/C [25] 24% | viability, T/C [26] 21.5% | viability, T/C [27] 25.9% | viability, T/C [28] 27.9% | viability, T/C [29] 29.5% | viability, T/C [30] 26.8% | viability, T/C [31] 21.5% | viability, T/C [32] 22.9% | viability, T/C [33] 23.9% | viability, T/C [34] 22.1% | viability, T/C [35] 26.7% | viability, T/C [36] 25.2%
